Reference: PubChem BioAssay AID256 (DTP/NCI, 2004)
Inconclusive results and toxic doses are left out.

Tested on: CD2F1 mice, L1210 leukemia ip, survival T/C
Assay: NCI In Vivo Anticancer Drug Screen. Data for tumor model L1210 Leukemia (intraperitoneal) in CD2F1 (CDF1) mice
Details: endpoint: mean survival time, higher = longer survival
Method in brief: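 Read-out first: treated-group measurement over vehicle-control measurement, expressed as a ratio. Animals bore a transplanted tumor line and were dosed with compound or vehicle.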

[1] = dose: 50.0 mg/kg/injection, schedule: Q01DX009 (ip), vehicle: saline with Tween-80
[2] = dose: 100.0 mg/kg/injection, schedule: Q01DX009 (ip), vehicle: saline with Tween-80
[3] = dose: 100.0 mg/kg/injection, schedule: Q04DX003 (ip), vehicle: saline with Tween-80
[4] = dose: 200.0 mg/kg/injection, schedule: Q04DX003 (ip), vehicle: saline with Tween-80
[5] = dose: 400.0 mg/kg/injection, schedule: Q04DX003 (ip), vehicle: saline with Tween-80

N#Cc1c(NC(=S)NC2OC(COCc3ccccc3)C(OCc3ccccc3)C2OCc2ccccc2)ncn1Cc1ccccc1 (stereo unspecified)
T/C (dose: 50.0 mg/kg/injection, schedule: Q01DX009 (ip), vehicle: acetone): 94 % of control
T/C (dose: 100.0 mg/kg/injection, schedule: Q01DX009 (ip), vehicle: acetone): 98 % of control
T/C (dose: 100.0 mg/kg/injection, schedule: Q04DX003 (ip), vehicle: acetone): 91 % of control
T/C (dose: 200.0 mg/kg/injection, schedule: Q01DX009 (ip), vehicle: acetone): 93 % of control
T/C (dose: 200.0 mg/kg/injection, schedule: Q04DX003 (ip), vehicle: acetone): 91 % of control

ClCCN(CCCl)CCCN1c2ccccc2Sc2ccc(Cl)cc21
T/C (dose: 18.0 mg/kg/injection, schedule: Q01DX001 (ip), vehicle: saline with Tween-80): 103 % of control
T/C (dose: 28.0 mg/kg/injection, schedule: Q01DX001 (ip), vehicle: saline with Tween-80): 100 % of control
T/C (dose: 40.0 mg/kg/injection, schedule: Q01DX001 (ip), vehicle: saline with Tween-80): 97 % of control
T/C (dose: 60.0 mg/kg/injection, schedule: Q01DX001 (ip), vehicle: saline with Tween-80): 103 % of control
T/C (dose: 90.0 mg/kg/injection, schedule: Q01DX001 (ip), vehicle: saline with Tween-80): 107 % of control
T/C (dose: 135.0 mg/kg/injection, schedule: Q01DX001 (ip), vehicle: saline with Tween-80): 112 % of control

NC(=O)c1cc(C(N)=O)n(C2OC(CO)C(O)C2O)n1 (stereo unspecified)
T/C (dose: 12.5 mg/kg/injection, schedule: Q01DX005 (ip), vehicle: water): 100 % of control
T/C (dose: 25.0 mg/kg/injection, schedule: Q01DX005 (ip), vehicle: water): 100 % of control
T/C (dose: 50.0 mg/kg/injection, schedule: Q01DX005 (ip), vehicle: water): 92 % of control
T/C (dose: 100.0 mg/kg/injection, schedule: Q01DX005 (ip), vehicle: water): 107 % of control
T/C (dose: 200.0 mg/kg/injection, schedule: Q01DX005 (ip), vehicle: water): 96 % of control

O=C1NC(=O)C(Cc2ccccc2)(Cc2ccccc2)C(=O)N1Cc1ccccc1
T/C [1]: 100 % of control
T/C [2]: 91 % of control
T/C (dose: 200.0 mg/kg/injection, schedule: Q01DX009 (ip), vehicle: saline with Tween-80): 100 % of control

CCOC(=O)C(Br)(C(=O)OCC)C(c1ccccc1)c1ccccc1
T/C [3]: 98 % of control
T/C [4]: 89 % of control
T/C [5]: 93 % of control

CC(=O)Nc1ncc2ccccc2c1-c1ccc(N(CCCl)CCCl)cc1
T/C (dose: 25.0 mg/kg/injection, schedule: Q04DX003 (ip), vehicle: DMSO): 105 % of control
T/C (dose: 50.0 mg/kg/injection, schedule: Q04DX003 (ip), vehicle: DMSO): 94 % of control
T/C (dose: 50.0 mg/kg/injection, schedule: Q04DX003 (ip), vehicle: Klucel (hydroxypropylcellulose) (HPC)): 95 % of control
T/C (dose: 100.0 mg/kg/injection, schedule: Q04DX003 (ip), vehicle: DMSO): 111 % of control
T/C (dose: 100.0 mg/kg/injection, schedule: Q04DX003 (ip), vehicle: Klucel (hydroxypropylcellulose) (HPC)): 104 % of control
T/C (dose: 100.0 mg/kg/injection, schedule: Q04DX003 (ip), vehicle: saline + alcohol): 92 % of control
T/C (dose: 200.0 mg/kg/injection, schedule: Q04DX003 (ip), vehicle: Klucel (hydroxypropylcellulose) (HPC)): 101 % of control
T/C (dose: 200.0 mg/kg/injection, schedule: Q04DX003 (ip), vehicle: saline + alcohol): 101 % of control
T/C (dose: 400.0 mg/kg/injection, schedule: Q04DX003 (ip), vehicle: DMSO): 150 % of control
T/C (dose: 400.0 mg/kg/injection, schedule: Q04DX003 (ip), vehicle: Klucel (hydroxypropylcellulose) (HPC)): 104 % of control
T/C (dose: 400.0 mg/kg/injection, schedule: Q04DX003 (ip), vehicle: saline + alcohol): 97 % of control

CC(=O)[O][Hg][O]C(C)=O
T/C (dose: 1.25 mg/kg/injection, schedule: Q01DX009 (ip), vehicle: saline sonified): 95 % of control
T/C (dose: 2.5 mg/kg/injection, schedule: Q01DX009 (ip), vehicle: saline sonified): 103 % of control
T/C (dose: 5.0 mg/kg/injection, schedule: Q01DX009 (ip), vehicle: saline sonified): 90 % of control
T/C (dose: 5.0 mg/kg/injection, schedule: Q04DX003 (ip), vehicle: saline with Tween-80): 106 % of control

CC(C)OC(=O)Nc1ccc(Cl)cc1
T/C [3]: 97 % of control
T/C [4]: 97 % of control
T/C [5]: 100 % of control

CC(C)=CCN1C(=O)c2ccccc2C1=O
T/C (dose: 25.0 mg/kg/injection, schedule: Q01DX009 (ip), vehicle: saline with Tween-80): 102 % of control
T/C (dose: 25.0 mg/kg/injection, schedule: Q04DX003 (ip), vehicle: saline with Tween-80): 101 % of control
T/C [1]: 98 % of control
T/C (dose: 50.0 mg/kg/injection, schedule: Q04DX003 (ip), vehicle: saline with Tween-80): 101 % of control
T/C [2]: 96 % of control
T/C [3]: 110 % of control
